In US7517517B2 (Janssen Pharmaceutica N.V., priority 2002, dated 2009):
Marks after values point to notes of the source that are not given here.

Key:
rat mGlu1a receptor = target: T1, rat mGlu1a receptor (Rattus norvegicus, UniProt P23385); experiment: [3H]Compound A binding to rat mGlu1a receptor CHO-dhfr− membranes (saturation, kinetics, inhibition); details: for observed association rate constant (kob): 2.5 nM radioligand
T1 construct: host or cells: CHO-dhfr- cells

rat mGlu3 receptor = target: T2, rat mGlu3 receptor (Rattus norvegicus, UniProt P31422); experiment: [3H]Compound A binding to membranes from CHO-dhfr− cells expressing the rat mGlu3 receptor; details: 20 nM [3H]Compound A, 40 μg membranes
T2 construct: host or cells: CHO-dhfr- cells
Method: (§1) Confluent cells were washed in ice-cold phosphate-buffered saline and stored at −20° C. until membrane preparation. After thawing, cells were suspended in 50 mM Tris-HCl, pH 7.4 and collected through centrifugation for 10 min at 23,500 g at 4° C. The cells were lysed in 10 mM hypotonic Tris-HCl, pH 7.4. After recentrifugation for 20 min at 30,000 g at 4° C., the pellet was homogenized with an Ultra Turrax homogenizer in 50 mM Tris-HCl, pH 7.4. Protein concentrations were measured by the Bio-Rad protein assay using bovine serum albumin as standard.
(§2) After thawing, the membranes were homogenized using an Ultra Turrax homogenizer and suspended in ice-cold binding buffer containing 50 mM Tris-HCl (pH 7.4), 1.2 mM MgCl2, 2 mM CaCl2. For [^3H]Compound A binding, 20 to 160 μg membrane protein and a final concentration of 20 nM [^3H]Compound A was used. As indicated in the results section, different blancs were used to define non-specific binding. Incubation time and temperature as well as filtration were as described for rat mGlu1a receptor CHO-dhfr^− membranes. Expression of rat mGlu2, -3, -5 and mGlu6 receptors was confirmed by specific binding of [^3H]LY341495 (mGlu2, -3 and -6) or [^3H]MPEP (mGlu5). For [^3H]LY341495 binding, 1 nM (mGlu2 and mGlu3) or 10 nM (mGlu6) [^3H]LY341495 was used. […] Assay mixtures were incubated for 30 min (mGlu2 and mGlu3) or 60 min (mGlu6) at 4° C. […]

rat mGlu5 receptor = target: T3, rat mGlu5 receptor (Rattus norvegicus, UniProt P31424); experiment: [3H]Compound A binding to membranes from CHO-dhfr− cells expressing the rat mGlu5 receptor; details: 20 nM [3H]Compound A, 40 μg membranes; Compound 135 as blanc
T3 construct: host or cells: CHO-dhfr- cells
Method: as §1, §2

rat mGlu6 receptor = target: T4, rat mGlu6 receptor (Rattus norvegicus, UniProt P35349); experiment: [3H]Compound A binding to membranes from CHO-dhfr− cells expressing the rat mGlu6 receptor; details: 20 nM [3H]Compound A, 40 μg membranes; Compound 135 as blanc
T4 construct: host or cells: CHO-dhfr- cells
Method: as §1, §2

mGlu1 receptor = mGlu1 receptor (Rattus norvegicus, UniProt P23385); experiment: [3H]Compound A binding to rat brain membranes (cortex, hippocampus, striatum, cerebellum)
Method: Tissue preparation. Male Wistar rats (˜200 g) were sacrificed by decapitation. The brains were rapidly removed and cortex, hippocampus, striatum and cerebellum were immediately dissected. The fresh tissue was homogenized with an Ultra Turrax in 20 volumes of 50 mM Tris-HCl, pH 7.4 and tissue was centrifuged at 23,500 g for 10 min. After homogenisation using a DUAL homogeniser, membranes were washed twice by centrifugation at 23,500 g for 10 min. The final pellet was suspended in 10 volumes of 50 mM Tris-HCl, pH 7.4 and frozen at −80° C.
In vitro binding assay. After thawing, membranes from rat cortex, cerebellum, striatum and hippocampus were rehomogenized using a DUAL and suspended in ice-cold binding buffer containing 50 mM Tris-HCl, 1.2 mM MgCl2, 2 mM CaCl2, pH 7.4. The binding assay was carried out in a total volume of 0.5 ml containing 2.5 nM [^3H]Compound A and a membrane aliquot corresponding to 40 μg for cerebellar membranes, 60 μg for hippocampal membranes, 80 μg for striatal membranes or 150 μg for cortical membranes. […] After incubation for 30 min at 4° C., the labelled membranes were washed and harvested by rapid vacuum filtration over Whatman GF/C glass-fibre filters using a 40-well filtration manifold and radioactivity collected on the filters was counted as above.
Data analysis was performed using the GraphPad Prism program (GraphPad Prism Software, Inc., San Diego, Calif.). Saturation binding experiments were analysed using a non-linear regression analysis. Inhibition curves were fitted using non-linear regression analysis fitting the one-site competition equation: Y=Bottom+((Top−Bottom)/1+10^X-LogIC50). Ki values were calculated using the Cheng-Prusoff equation: Ki=IC50/[1+([C]/KD)] where C is the concentration of radioligand and KD is the dissociation constant of the radioligand (Cheng and Prusoff, Biochem. Pharmacol. 22, 3099-3108, 1973). The observed on (kob) and off (koff) rate were calculated from association-dissociation curves using the one-phase-exponential association and decay equations in the Prism program, respectively. kon was calculated by subtracting koff from kob and dividing by the radioligand concentration. The two-tailed Student's t-test was used for statistical evaluation of the binding data: * p<0.05, ** p<0.01 and *** p<0.001. The Dunnett's t-test following a 2-way analysis of variance (with as factors compound concentration and experiment) were used to analyse the data from the IP experiments.

[1] = [3H]Compound A saturation binding in presence of BAY 36-7620 (100 nM), mean ± SD, 3 experiments
[2] = [3H]Compound A saturation binding in presence of CPCCOEt (30 μM), mean ± SD, 3 experiments
[3] = [3H]Compound A saturation binding in presence of NPS 2390 (10 nM), mean ± SD, 3 experiments
[4] = [3H]Compound A saturation binding, control (absence of antagonist), mean ± SD, 3 experiments
[5] = membranes from rat cerebellum, mean ± SD, 3 experiments
[6] = membranes from rat cortex, mean ± SD, 3 experiments
[7] = membranes from rat hippocampus, mean ± SD, 3 experiments
[8] = membranes from rat striatum, mean ± SD, 3 experiments

T1 sequence (P23385 19-1199): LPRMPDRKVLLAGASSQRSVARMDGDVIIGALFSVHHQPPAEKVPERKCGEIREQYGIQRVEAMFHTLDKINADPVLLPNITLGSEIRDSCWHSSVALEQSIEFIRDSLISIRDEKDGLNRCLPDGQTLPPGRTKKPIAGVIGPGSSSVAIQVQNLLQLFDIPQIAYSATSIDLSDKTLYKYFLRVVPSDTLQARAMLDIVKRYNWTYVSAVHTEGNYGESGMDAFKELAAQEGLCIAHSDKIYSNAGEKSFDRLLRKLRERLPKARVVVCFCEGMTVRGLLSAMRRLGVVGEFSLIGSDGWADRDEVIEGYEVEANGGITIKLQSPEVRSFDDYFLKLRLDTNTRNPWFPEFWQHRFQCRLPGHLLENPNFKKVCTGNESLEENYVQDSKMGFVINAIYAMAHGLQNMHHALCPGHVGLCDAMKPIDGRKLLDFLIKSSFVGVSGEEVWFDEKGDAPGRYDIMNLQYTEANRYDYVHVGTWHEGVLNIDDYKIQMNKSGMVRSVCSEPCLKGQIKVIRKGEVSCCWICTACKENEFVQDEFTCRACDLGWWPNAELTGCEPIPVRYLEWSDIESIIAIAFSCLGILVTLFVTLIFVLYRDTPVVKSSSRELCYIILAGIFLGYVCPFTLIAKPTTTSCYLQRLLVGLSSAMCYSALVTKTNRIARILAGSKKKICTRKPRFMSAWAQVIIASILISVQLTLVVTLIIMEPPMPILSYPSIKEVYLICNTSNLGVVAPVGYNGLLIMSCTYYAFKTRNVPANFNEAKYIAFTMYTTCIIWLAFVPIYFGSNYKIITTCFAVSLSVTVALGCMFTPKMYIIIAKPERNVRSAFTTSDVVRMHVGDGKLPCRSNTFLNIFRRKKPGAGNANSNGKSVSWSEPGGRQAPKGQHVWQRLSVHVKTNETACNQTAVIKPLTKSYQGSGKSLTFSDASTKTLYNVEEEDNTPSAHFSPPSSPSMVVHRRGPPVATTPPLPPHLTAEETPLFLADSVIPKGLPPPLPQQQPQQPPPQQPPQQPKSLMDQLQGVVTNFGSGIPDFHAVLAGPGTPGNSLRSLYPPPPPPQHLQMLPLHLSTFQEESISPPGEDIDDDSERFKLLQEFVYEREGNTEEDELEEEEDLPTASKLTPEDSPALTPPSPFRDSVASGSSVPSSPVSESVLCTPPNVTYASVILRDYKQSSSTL
T2 sequence (P31422 23-879): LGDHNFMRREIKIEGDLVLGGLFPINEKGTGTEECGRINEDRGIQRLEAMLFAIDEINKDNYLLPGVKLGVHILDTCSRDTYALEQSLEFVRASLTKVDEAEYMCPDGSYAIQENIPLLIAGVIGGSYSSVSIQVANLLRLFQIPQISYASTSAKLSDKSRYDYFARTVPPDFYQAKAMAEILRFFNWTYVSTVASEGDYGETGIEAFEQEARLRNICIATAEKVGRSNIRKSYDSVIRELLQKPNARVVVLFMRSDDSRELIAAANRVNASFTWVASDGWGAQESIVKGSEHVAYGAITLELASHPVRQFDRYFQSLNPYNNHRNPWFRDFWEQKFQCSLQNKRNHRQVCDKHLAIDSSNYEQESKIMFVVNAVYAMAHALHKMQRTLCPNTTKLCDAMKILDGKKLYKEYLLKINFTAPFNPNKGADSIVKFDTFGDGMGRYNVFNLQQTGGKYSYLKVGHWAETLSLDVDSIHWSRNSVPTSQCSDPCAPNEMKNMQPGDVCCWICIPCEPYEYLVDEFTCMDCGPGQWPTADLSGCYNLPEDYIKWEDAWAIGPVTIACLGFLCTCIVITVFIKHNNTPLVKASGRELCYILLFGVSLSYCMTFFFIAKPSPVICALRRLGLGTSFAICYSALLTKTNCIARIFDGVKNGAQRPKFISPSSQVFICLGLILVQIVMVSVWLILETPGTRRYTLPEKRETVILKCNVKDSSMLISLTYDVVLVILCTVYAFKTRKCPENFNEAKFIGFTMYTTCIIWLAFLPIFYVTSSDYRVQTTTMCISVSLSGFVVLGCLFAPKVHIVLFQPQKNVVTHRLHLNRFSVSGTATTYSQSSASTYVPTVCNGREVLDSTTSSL
T3 sequence (P31424 21-1203): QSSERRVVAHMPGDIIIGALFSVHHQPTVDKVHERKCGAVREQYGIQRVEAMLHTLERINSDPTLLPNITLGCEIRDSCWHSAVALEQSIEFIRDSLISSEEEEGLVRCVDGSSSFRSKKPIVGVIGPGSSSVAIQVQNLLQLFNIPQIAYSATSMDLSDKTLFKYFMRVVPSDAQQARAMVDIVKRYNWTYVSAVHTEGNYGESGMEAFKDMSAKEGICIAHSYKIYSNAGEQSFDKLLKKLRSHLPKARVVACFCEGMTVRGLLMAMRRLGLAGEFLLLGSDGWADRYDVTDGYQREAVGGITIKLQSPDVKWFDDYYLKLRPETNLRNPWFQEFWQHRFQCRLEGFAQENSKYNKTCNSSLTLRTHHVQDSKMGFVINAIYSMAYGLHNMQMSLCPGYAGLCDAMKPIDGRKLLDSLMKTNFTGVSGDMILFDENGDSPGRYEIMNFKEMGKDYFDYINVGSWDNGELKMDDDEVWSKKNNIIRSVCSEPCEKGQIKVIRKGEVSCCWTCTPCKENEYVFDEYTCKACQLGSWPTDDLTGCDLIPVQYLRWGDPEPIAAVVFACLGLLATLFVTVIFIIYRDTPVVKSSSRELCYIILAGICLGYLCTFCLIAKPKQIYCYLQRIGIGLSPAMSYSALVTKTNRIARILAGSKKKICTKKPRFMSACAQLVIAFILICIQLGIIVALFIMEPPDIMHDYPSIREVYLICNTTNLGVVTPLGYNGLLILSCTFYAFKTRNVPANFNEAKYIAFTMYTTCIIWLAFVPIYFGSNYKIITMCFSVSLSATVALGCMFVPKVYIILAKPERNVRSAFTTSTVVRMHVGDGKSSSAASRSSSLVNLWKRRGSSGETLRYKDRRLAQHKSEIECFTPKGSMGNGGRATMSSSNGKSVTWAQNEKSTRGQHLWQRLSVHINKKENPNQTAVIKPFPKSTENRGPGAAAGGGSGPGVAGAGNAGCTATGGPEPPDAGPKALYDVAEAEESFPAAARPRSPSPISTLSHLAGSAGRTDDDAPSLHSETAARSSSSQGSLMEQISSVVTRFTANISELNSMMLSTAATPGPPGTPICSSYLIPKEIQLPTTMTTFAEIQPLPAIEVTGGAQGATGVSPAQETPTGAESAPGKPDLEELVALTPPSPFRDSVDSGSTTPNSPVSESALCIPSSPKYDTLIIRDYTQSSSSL
T4 sequence (P35349 24-871): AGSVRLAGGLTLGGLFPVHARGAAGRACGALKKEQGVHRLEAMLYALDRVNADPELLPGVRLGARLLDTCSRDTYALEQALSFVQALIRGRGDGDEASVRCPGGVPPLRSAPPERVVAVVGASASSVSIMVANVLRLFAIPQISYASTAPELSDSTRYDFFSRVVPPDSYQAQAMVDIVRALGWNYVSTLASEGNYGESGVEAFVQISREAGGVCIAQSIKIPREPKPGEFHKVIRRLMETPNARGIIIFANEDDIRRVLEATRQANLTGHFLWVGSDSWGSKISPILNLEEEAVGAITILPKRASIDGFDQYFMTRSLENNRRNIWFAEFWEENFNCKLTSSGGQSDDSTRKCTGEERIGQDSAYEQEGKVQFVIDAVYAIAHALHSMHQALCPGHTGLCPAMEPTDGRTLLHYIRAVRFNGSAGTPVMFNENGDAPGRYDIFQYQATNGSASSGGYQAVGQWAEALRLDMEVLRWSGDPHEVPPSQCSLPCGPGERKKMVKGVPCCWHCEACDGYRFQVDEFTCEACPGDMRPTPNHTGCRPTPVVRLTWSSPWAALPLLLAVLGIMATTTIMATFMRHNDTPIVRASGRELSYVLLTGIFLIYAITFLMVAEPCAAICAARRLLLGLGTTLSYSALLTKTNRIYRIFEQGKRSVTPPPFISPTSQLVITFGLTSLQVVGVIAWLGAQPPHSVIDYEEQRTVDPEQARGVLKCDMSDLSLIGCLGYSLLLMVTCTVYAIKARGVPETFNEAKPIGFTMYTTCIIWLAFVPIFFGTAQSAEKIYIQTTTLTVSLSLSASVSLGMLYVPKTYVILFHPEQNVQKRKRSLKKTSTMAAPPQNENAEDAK

SB (fmoles/mg protein), mGlu1 (rat mGlu1a receptor; 10 nM [3H]Compound A, 20 μg membranes, Compound 135 as blanc, mean ± SD of 3 experiments): 6057 fmoles/mg protein
specific binding as % of the total binding (rat mGlu1a receptor; 20 μg protein per assay, non-specific binding with 1 μM compound 135): ~92%
koff (rat mGlu1a receptor; 4° C.): 0.00208 s⁻¹
specific binding after 2 min incubation as % of the quantity bound at equilibrium (rat mGlu1a receptor; 4° C.): about 70%
time to complete displacement after addition of excess compound 135 (rat mGlu1a receptor; 4° C.): approximately 45 min
observed association rate constant (kob) (rat mGlu1a receptor; 4° C.): 0.6285 min⁻¹
kon (rat mGlu1a receptor; 4° C., read-out: kon (kob−koff/radioligand concentration) (converted)): 1.68e+06 M⁻¹ s⁻¹
time to dissociation after addition of 1 μM compound 135 (rat mGlu1a receptor; 25° C.): ≤ 2 min
observed association rate constant (kob) (rat mGlu1a receptor; 25° C.): 2.571 min⁻¹
observed association rate constant (kob) (rat mGlu1a receptor; 37° C.): 1.523 min⁻¹
Bmax (rat mGlu1a receptor; [1]): 5872 ± 1018 fmoles/mg protein
Kd (rat mGlu1a receptor; [1]): 5.21 ± 1.2 nM
Bmax (rat mGlu1a receptor; [2]): 7009 ± 1231 fmoles/mg protein
Kd (rat mGlu1a receptor; [2]): 3.17 ± 0.9 nM
Bmax (rat mGlu1a receptor; [3]): 6887 ± 2804 fmoles/mg protein
Kd (rat mGlu1a receptor; [3]): 2.9 ± 0.2 nM
Bmax (rat mGlu1a receptor; [4]): 7284 ± 970 fmoles/mg protein
Kd (rat mGlu1a receptor; [4]): 0.73 ± 0.09 nM
incubation time to maximal binding (rat mGlu1a receptor; each incubation temperature (4, 25, 37° C.)): ≤ 5 min
decrease of specific binding at pH 6 (rat mGlu1a receptor; pH 6): 22%
more binding sites labelled than [3H]quisqualate (rat mGlu1a receptor; rat mGlu1a receptor CHO-dhfr− membranes): ~40%
Kd (rat mGlu1a receptor; saturation, 30 min incubation, n=3): 0.9 ± 0.14 nM
SB (fmoles/mg protein), mGlu3 (rat mGlu3 receptor; Compound 135 as blanc): 0 fmoles/mg protein
SB (fmoles/mg protein), mGlu3 (rat mGlu3 receptor; various blancs: 1 mM glutamate): 0^a fmoles/mg protein
SB (fmoles/mg protein), mGlu5 (rat mGlu5 receptor): 38 fmoles/mg protein
SB (fmoles/mg protein), mGlu6 (rat mGlu6 receptor): 0 fmoles/mg protein
Kd (mGlu1 receptor; all structures (cortex, hippocampus, striatum, cerebellum)): ~1 nM
non-specific binding compared to total binding (mGlu1 receptor; cerebellum): 10%
non-specific binding compared to total binding (mGlu1 receptor; cortex): 25%
number of sites labelled as % of the number found in the cerebellum (mGlu1 receptor; cortex): 11%
non-specific binding compared to total binding (mGlu1 receptor; hippocampus): 30%
number of sites labelled as % of the number found in the cerebellum (mGlu1 receptor; hippocampus): about 16%
Bmax (mGlu1 receptor; [5]): 4302 ± 2042 fmoles/mg protein
Kd (mGlu1 receptor; [5]): 0.99 ± 0.36 nM
Bmax (mGlu1 receptor; [6]): 471 ± 68 fmoles/mg protein
Kd (mGlu1 receptor; [6]): 1.04 ± 0.4 nM
Bmax (mGlu1 receptor; [7]): 688 ± 125 fmoles/mg protein
Kd (mGlu1 receptor; [7]): 0.72 ± 0.22 nM
Bmax (mGlu1 receptor; [8]): 741 ± 48 fmoles/mg protein
Kd (mGlu1 receptor; [8]): 0.84 ± 0.23 nM
non-specific binding compared to total binding (mGlu1 receptor; striatum): 25%
number of sites labelled as % of the number found in the cerebellum (mGlu1 receptor; striatum): about 16%
melting point: 195 °C
SMILES: [3H]c1ccc(CC(=O)c2ccc3nc4c(cc3c2)CCCO4)cc1 [[^3H]Compound A]
